From US4434101A, “Inhibitors of SRS-synthesis” (Hoffmann-La Roche Inc., priority 1981, dated 1984)

Test system: SRS-A synthesis in rat peritoneal cells
Assay: Inhibition of the In Vitro Synthesis of SRS-A in Rat Peritoneal Cells
Assay type: cell-based, rat (male Sprague-Dawley)
Conditions: for inhibition at 10 µM: mean percent inhibition of ionophore A23187-induced SRS-A synthesis, 10 min preincubation at 37° C., p<0.001, SRS-A quantitated by guinea pig ileum bioassay, read-out: % Inhibition at 10μ M; for IC50: from plot of mean percent inhibition versus drug concentration, ionophore A23187-induced SRS-A synthesis
Excerpt: Inhibition of the In Vitro Synthesis of SRS-A in Rat Peritoneal Cells
To study the effect of drugs on SRS-A synthesis in rat peritoneal cells, these cells (including mast cells, monocytes, eosinophils and neutrophils)were isolated from male Sprague-Dawley rats (Charles River Laboratories) weighing 180-220 g by the lavage procedure described by Herzig, D. G. and Dusner, E. J. Journal of Pharmacology and Experimental Therapeutics, 194, 457-460 (1975) with the exception that Hanks balanced salt solution used in these experiments was adjusted to pH 6.9 with 5% (V/V) of 0.1 M aqueous phosphate buffer and contained 50 mg/ml sodium heparin. After removal from the peritoneal cavity of rats, the cells were subsequently isolated by centrifugation at 400×gravity for 10 minutes at 4° C. and resuspended to a concentration of about 2,000,000 cells per ml in Hanks buffer.
Samples for evaluation were prepared by adding various concentrations of test drugs to 2 ml aliquots of the resuspended cells in Hanks buffer. The 2 ml samples used for control contained 2 ml aliquots of resuspended cells in Hanks buffer without drugs. All of the above samples (2 ml final volume) were preincubated at 37° C. for 10 minutes in the presence of varying concentrations of test drug prior to challenge with […] ionophore A23187. This ionophore is disclosed in Burka and Flower, Br. J. Pharmacology 65: 35-41 (1979). Antibiotic A23187 was used as a probe for the study of calcium and function in biological systems. After ionophore challenge, SRS-A was synthesized in the samples by the cells for 10 minutes (at 37° C.) after which this synthesis was terminated by placing the samples in a boiling water bath for 10 minutes followed by centrifugation at 2,000×g (10 minutes) at 4° C. to remove coagulated protein and cellular debris. The SRS-A present in the resulting supernatants was quantitated by a bioassay using a guinea pig ileum as described in Orange, and Austen, Adv. Immunol, 10: 105-144 (1969). For this bioassay, a 1.5 cm segment of ileum was removed from animals weighing 300 to 400 g and resuspended in an organ bath containing 10 ml of Tyrodes solution with 10^-6 M atropine sulfate and 10^-6 M pyrilamine maleate. The bath was maintained at 37° C. and aereated with a mixture of 95% O2 and 5% CO2. The concentration of SRS-A in the experimental samples was determined by a comparison of isotonic contraction responses elicited by the samples with those obtained with varying amounts of an SRS-A standard solution prepared from chopped guinea pig lung as disclosed in Hitchcock, M. J. Pharmacol. Exp. Ther. 207: 630-640 (1978) and quantitated by the procedures of Orange, R. R. and Austen, K. F. Adv. Immunol. 10: 105-144 (1969) against histamine (1 unit of SRS-A being that amount which gives a contractie response similar to that of […] of histamine). In the absence of drug, the ionophore A23187-induced SRS-A synthesis varied between 40 to 50 units of SRS-A per 10^6 cells. In the presence of increasing concentrations of test drug, there was a concentration-related decrease in SRS-A synthesis.
The mean percent inhibition [formula] at each concentration of the various test drugs was calculated. The concentration of test drug which inhibits the synthesis of SRS-A by 50% (IC50) was determined for each test drug from a plot of the mean percent inhibition versus drug concentration. The difference of units of SRS-A in the test sample used in the fraction given above was obtained by subtracting the units of SRS-A in the control from the actual measurement of the units of SRS-A in the sample.

| IC50 | Structure (SMILES) | inhibition at 10 µM |
| --- | --- | --- |
| 1 to 3 µM | CCCCC/C=C\C/C=C\C/C=C\C(C)(C)/C=C\CCCC(=O)O [(all-Z)-7,7-dimethyleicosa-5,8,11,14-tetraenoic acid] | 100% |
| < 10 µM | CCCCCCCCCCC/C=C\C(C)(C)/C=C\CCCC(=O)O [(Z,Z)-7,7-dimethyl-5,8-eicosadienoic acid] | 100% |
| < 10 µM | CCCCCCCC/C=C\C/C=C\C(C)(C)/C=C\CCCC(=O)O [(all Z)-7,7-dimethyl-5,8,11-eicosatrienoic acid] | 100% |
